Square brackets hold non-standard residues; d marks the D form. Trp(5-F) = N[C@@H](Cc1c[nH]c2ccc(F)cc12)C(=O)O; Trp(5-Me) = Cc1ccc2[nH]cc(C[C@H](N)C(=O)O)c2c1; Trp(6-F) = N[C@@H](Cc1c[nH]c2cc(F)ccc12)C(=O)O; Bpa = N[C@@H](Cc1ccc(C(=O)c2ccccc2)cc1)C(=O)O; 1Nal = N[C@@H](Cc1cccc2ccccc12)C(=O)O; 2Nal = N[C@@H](Cc1ccc2ccccc2c1)C(=O)O; Igl = N[C@H](C(=O)O)C1Cc2ccccc2C1
Columns and labels:
[1] = test system: complement activation; conditions: fold more active than compstatin amidated at the C-terminus; published data and assays; cited from earlier work
[2] = test system: acute hemolysis; assay: Hemoglobin during intensive dosing for acute hemolysis in PNH patients; type: in vivo, human; conditions: patients with and without RBC transfusion (FIG. 6)
Description: (§1) Eligibility criteria for the intensive dosing regimen included lactate dehydrogenase (LDH) >2× the upper limit of normal (ULN) and one new or worsening sign or symptom of hemolysis (e.g., decreased hemoglobin (Hb), hemoglobinuria, or fatigue).
(§2) Patients who experienced additional acute hemolysis events after receiving intensive PEG treatment received additional doses of intensive SC PEG or intensive IV PEG. […] Analyzed data relates to the first event if a patient experienced multiple acute hemolysis events.
(§3) Levels of Hb (on day 1) and LDH (on day 1, day 2, days 7-12, days 14-19) during the event of acute hemolysis were determined. […] For each patient, at least 6 days were between the measurements on day 7-12 and day 14-19. Safety was evaluated by the incidence and severity of adverse events.

[3] = test system: acute hemolysis; assay: LDH during intensive dosing for acute hemolysis in PNH patients; type: in vivo, human
Description: as §1, §2, §3

[4] = Safety of intensive dosing in PNH patients; type: in vivo, human; conditions: intensive PEG treatment
Description: as §1, §2, §3

[5] = Serum concentration of PEG after single IV infusion, ascending dose study; type: in vivo, human; conditions: for peak concentration (Cmax), mean serum concentration: healthy subjects
[6] = test system: C3a; assay: C3a levels (ELISA) after single IV infusion; type: in vivo, human
Experimental: C3a Split Product Testing: C3a was measured by ELISA (BD Pharmingen optEIA) using microtiter plates precoated with specific monoclonal antibodies against C3a. The standards, controls and test specimens were diluted and placed in duplicate into the wells and incubated to allow binding of the split products to the antibodies in the well. After washing away unbound proteins, a second anti-split products antibody, conjugated to an enzyme (horseradish peroxidase) was allowed to react with the split products bound to the first antibody on the plate. After an appropriate incubation time and washing, a chromogenic substrate for the enzyme was added to the wells, and the intensity of color that developed was determined spectrophotometrically. Three QC specimens were run on every assay.
C3a ELISA Calculations: The optical densities (OD) for each of the wells containing the standards for the assay were entered as the dependent variables (Y) in a linear regression calculation (Microsoft Excel) in which the concentrations of the standards (provided by the kit manufacturer, BD Pharmingen) were the independent variables (X). The slope (m) and intercept (b) obtained from the regression analysis on a log-log were then used to calculate the concentrations of the unknowns (controls and test specimens). The formula for a straight line was used to calculate the unknown values using a log/log solution: LnY=mLnX+b, solved for X: X=exp (LnY−b)/m*dilution.

[7] = test system: total complement hemolytic activity (CH50); assay: CH50 after single IV infusion; type: in vivo, human
[8] = test system: alternative complement pathway hemolytic activity (AH50); assay: AH50 hemolytic assay on serum after single IV infusion; type: in vivo, human
Experimental: AH50 Method: AH50 was measured by a hemolytic assay based on lysis of rabbit red blood cells (RA) due to activation of complement on the cell's surface. The AH50 (50% Alternative Complement Hemolytic dose) was determined for each component by adding a limiting amount of the test serum or plasma. For this assay, the buffers are created such as to block activity of the classical pathway, which requires calcium. Serial dilutions of the test specimen were mixed with equal volumes of the RA. This functional assay measured the amount of hemoglobin that was released when the target cells were lysed by the action of complement, and from this, the percentage of the cells that had been lysed was calculated. The major peak of the hemoglobin spectrum was read at 415 nm wavelength. For each assay the run was verified with a five-point standard and five points of characterized QC control.
AH50 Calculations: For verifiable continuity between assay runs, the AH50 assay was performed using a human serum standard with known AH50 activity. […] If the dilution series produced lysis that spanned the 50% point, the three points closest to the 50% point were used to determine the slope and intercept of the line by linear regression. If the percent lysis was very low and none of the dilutions produced 50% lysis, then the two highest points in the series were used, because the slope changes drastically as the sigmoid curve reaches its lower limit. Each specimen from the study was diluted in the same manner and individual 50% lysis points determined by linear regression.

[9] = human, in vivo
Experimental: (§4) Subjects were monitored during a safety period from Day 2 to 8 by physical examination, ECG, hematology, serum chemistry, monitoring for injection site reaction and treatment emergent adverse events (TEAEs). Follow-up safety assessments were performed on Days 15, 22, 29, and 43.

[10] = Safety in healthy volunteers, ascending dose study
Experimental: as §4

## Ac-ICV(1-Nal)QDWGAHRCT-COOH (Ac-ICV[1Nal]QDWGAHRCT-OH; not fully specified (bridges); printed as Ac-ICV(1-Nal)QDWGAHRCT-COOH; cysteine pairing not given here) [Ac V4(1-Nal)/H9A-OH]
[1]
  Activity over compstatin: 30x

## Ac-ICV(2-Igl)QDWGAHRCT-CONH2 (Ac-ICV[Igl]QDWGAHRCT-NH2; not fully specified (bridges); printed as Ac-ICV(2-Igl)QDWGAHRCT-CONH2; cysteine pairing not given here) [Ac-V42Igl/H9A]
[1]
  Activity over compstatin: 39x

## Ac-ICV(2-Igl)QDWGAHRCT-COOH (Ac-ICV[Igl]QDWGAHRCT-OH; not fully specified (bridges); printed as Ac-ICV(2-Igl)QDWGAHRCT-COOH; cysteine pairing not given here) [Ac-V42Igl/H9A-OH]
[1]
  Activity over compstatin: 37x

## Ac-ICV(2-Nal)QDWGAHRCT-CONH2 (Ac-ICV[2Nal]QDWGAHRCT-NH2; not fully specified (bridges); printed as Ac-ICV(2-Nal)QDWGAHRCT-CONH2; cysteine pairing not given here) [Ac-V4(2-Nal)/H9A]
[1]
  Activity over compstatin: 99x

## Ac-ICV(5-methyl-W)QDWGAHRCT-CONH2 (Ac-ICV[Trp(5-Me)]QDWGAHRCT-NH2; not fully specified (bridges); printed as Ac-ICV(5-methyl-W)QDWGAHRCT-CONH2; cysteine pairing not given here) [Ac-V4(5-MeW)/H9A]
[1]
  Activity over compstatin: 67x

## Ac-ICV(5fW)QDWGAHRCT-CONH2 (Ac-ICV[Trp(5-F)]QDWGAHRCT-NH2; not fully specified (bridges); printed as Ac-ICV(5fW)QDWGAHRCT-CONH2; cysteine pairing not given here) [Ac-V4(5fW)/H9A]
[1]
  Activity over compstatin: 31x

## Ac-ICV(Bpa)QDWGAHRCT-CONH2 (Ac-ICV[Bpa]QDWGAHRCT-NH2; not fully specified (bridges); printed as Ac-ICV(Bpa)QDWGAHRCT-CONH2; cysteine pairing not given here) [Ac-V4(Bpa)/H9A]
[1]
  Activity over compstatin: 86x

## Ac-ICV(Bpa)QDWGAHRCT-COOH (Ac-ICV[Bpa]QDWGAHRCT-OH; not fully specified (bridges); printed as Ac-ICV(Bpa)QDWGAHRCT-COOH; cysteine pairing not given here) [Ac-V4(Bpa)/H9A-OH]
[1]
  Activity over compstatin: 49x

## Ac-ICVVQDWGHHRCT-CONH2 [Ac-compstatin]
[1]
  Activity over compstatin: 3x

## Ac-ICVWQD(5fW)GAHRCT-CONH2 (Ac-ICVWQD[Trp(5-F)]GAHRCT-NH2; not fully specified (bridges); printed as Ac-ICVWQD(5fW)GAHRCT-CONH2; cysteine pairing not given here) [Ac-V4W/W7(5fW)/H9A]
[1]
  Activity over compstatin: 121x

## Ac-ICVWQDWGAHRCT-CONH2 (Ac-ICVWQDWGAHRCT-NH2; not fully specified (bridges); printed as Ac-ICVWQDWGAHRCT-CONH2; cysteine pairing not given here) [Ac-V4W/H9A]
[1]
  Activity over compstatin: 45x

## Ac-ICVWQDWGAHRCdT-COOH [Ac-V4W/H9A/T13dT-OH]
[1]
  Activity over compstatin: 55x

## Ac-ICVYQDWGAHRCT-CONH2 [Ac-V4Y/H9A]
[1]
  Activity over compstatin: 14x

## Ac-ICV[(2-Nal)QDWGAHRCT-COOH (Ac-ICV[2Nal]QDWGAHRCT-OH; not fully specified (bridges); printed as Ac-ICV[(2-Nal)QDWGAHRCT-COOH; cysteine pairing not given here) [Ac V4(2-Nal)/H9A-OH]
[1]
  Activity over compstatin: 38x

## H-GICV(5fW)QD(5fW)GAHRCTN-COOH (H-GICV[Trp(5-F)]QD[Trp(5-F)]GAHRCTN-OH; not fully specified (bridges); cysteine pairing not given here) [G/V4(5f-WV)/WV7(5fW)/H9A+N-OH]
[1]
  Activity over compstatin: 112x

## H-GICV(6fW)QD(6fW)GAHRCTN-COOH (H-GICV[Trp(6-F)]QD[Trp(6-F)]GAHRCTN-OH; not fully specified (bridges); cysteine pairing not given here) [+G/V4(6fW)/W7(6fW)H9A+N-OH]
[1]
  Activity over compstatin: 126x

## Poly(oxy-1,2-ethanediyl), α-hydro-ω-hydroxy-, 15,15′-diester with N-acetyl-L-isoleucyl-L-cysteinyl-L-valyl-1-methyl-L-tryptophyl-L-glutaminyl-L-α-aspartyl-L-tryptophylglycyl-L-alanyl-L-histidyl-L-arginyl-L-cysteinyl-L-threonyl-2-[2-(2-aminoethoxy)ethoxy]acetyl-N^6-carboxy-L-lysinamide cyclic (2-->12)-(disulfide) [PEG]
[2]
  mean Hb from day 1 of intensive therapy: increased
[3]; all 13 patients, intensive SC or IV PEG
  patients with LDH levels decreased at day 7-12: 13 patients
[3]; all evaluable patients, intensive SC or IV PEG 1080 mg
  patients with LDH levels decreased between day 1 and day 2: 8 of 12
[3]; all patients, intensive SC or IV PEG
  patients with LDH levels further decreased from day 7-12 to day 14-19: 11 of 13
[3]; intensive IV PEG
  patients with LDH levels further decreased from day 7-12 to day 14-19: 3 of 4
[3]; intensive IV PEG (single 1080 mg dose)
  patients with LDH levels decreased between day 1 and day 2: 4 of 4
[3]; intensive SC PEG
  patients with LDH levels further decreased from day 7-12 to day 14-19: 7 of 9
[3]; intensive SC PEG (1080 mg every 24 hours for 3 doses)
  patients with LDH levels decreased between day 1 and day 2: 4 of 8
[4]; 4 of 13 patients
  patients with serious adverse events: 31%
[4]; Nine of 13 patients
  patients with treatment-emergent adverse events: 69%
[4]
  adverse events leading to treatment discontinuation: None of the adverse events led to treatment discontinuation
  adverse events of meningitis or thrombosis: No adverse events of meningitis or thrombosis occurred
  share of treatment-emergent adverse events that were mild: 76%
[5]; Cohort 4 (2300 mg single IV)
  terminal elimination half-life: 11.9 days
[5]; single IV 200 mg, at 1 hr post-dose (infusion start)
  peak concentration (Cmax), mean serum concentration: 61 µg/mL
[5]; single IV 600 mg, at 1 hr post-dose (infusion start)
  peak concentration (Cmax), mean serum concentration: 193 µg/mL
[5]; single IV 1500 mg, at 4 hrs
  peak concentration (Cmax), mean serum concentration: 542 µg/mL
[5]; single IV 2300 mg, at 1 hr post-dose (infusion start)
  peak concentration (Cmax), mean serum concentration: 708 µg/mL
[6]; all PEG groups
  time within which initial rapid decrease in mean C3a levels occurred: ≤ 1 h
[6]; all dose groups
  time of trough mean C3a levels after dosing: ≤ 24 h
[6]; single IV 1500 mg, at 4 hours post-dosing start
  maximum mean C3a decrease from baseline: 57%
[7]; all cohorts
  Mean CH50 upon dosing: decreased immediately
[7]; single IV 1500 mg
  time for which decrease in mean CH50 was retained: at least 48 hours
[7]; single IV 2300 mg, post-dosing start
  time by which mean CH50 returned to baseline: ≤ 24 h
[8]; 1500 and 2300 mg single IV doses
  AH50 level from 1 hr post-dosing start: undetectable levels
[8]; all PEG cohorts (200-2300 mg single IV)
  time within which decreases in mean AH50 values were detected: ≤ 1 h
[8]; all PEG groups, p<0.0001
  mean maximum decrease of AH50 compared to placebo: statistically significant larger
[8]; single IV 200 mg
  time for which decrease in mean AH50 was maintained: at least 12 hrs
[8]; single IV 600 mg
  time for which decrease in mean AH50 was maintained: ≥ 72 h
[8]; single IV 1500 mg
  time for which decrease in mean AH50 was maintained: ≥ 144 h
[9]
  incidence of upper respiratory infections (TEAE): 12.5%
[10]; 2300 mg cohort, one subject, percent of the twenty subjects
  subjects with moderate TEAE (infusion-related reaction, dizziness, clamminess, nausea) that led to study discontinuation: 5.0%
[10]; PEG groups, n=2
  incidence of diarrhea (TEAE): 12.5%
[10]; PEG groups, n=6
  incidence of headache (TEAE): 37.5%
[10]; healthy subjects, single IV 200-2300 mg
  serious adverse events, deaths, severe TEAEs: No serious adverse events, deaths, or severe TEAEs occurred

From patent US20260069653A1, “COMPLEMENT INHIBITOR DOSING REGIMENS” (Apellis Pharmaceuticals, Inc., priority 2021, published 2026)
